Experimental data from patent US20130203756A1, “ISOINDOLINE PDE10 INHIBITORS” (priority 2010, published 2013).

Biological target: T1, human PDE10A2 (Homo sapiens, UniProt Q9Y233)
T1 construct: made in house; host or cells: AD293 cells, transient transfection; cytosolic supernatant of the sonicated lysate used as enzyme
Assay: PDE10 inhibitory activity, IMAP fluorescence polarization (FP) assay
Format: biochemical
Conditions: apparent inhibition constant, FAM-labeled cAMP 50 nM, room temperature, read-out: PDE10A Ki
Protocol: The activity of the compounds in accordance with the present invention as PDE10 inhibitors may be readily determined without undue experimentation using a fluorescence polarization (FP) methodology that is well known in the art (Huang, W., et al., J. Biomol Screen, 2002, 7: 215).
In a typical experiment the PDE 10 inhibitory activity of the compounds of the present invention was determined in accordance with the following experimental method. PDE10A2 was amplified from human fetal brain cDNA (Clontech, Mountain View, Calif.) using a forward primer corresponding to nucleotides 56-77 of human PDE10A2 (Accession No. AF127480, Genbank Identifier 4894716), containing a Kozak consensus sequence, and a reverse primer corresponding to nucleotides 2406-2413 of human PDE10A2 (Accession No. AF127480, Genbank Identifier 4894716). Amplification with Easy-A polymerase (Stratagene, La Jolla, Calif.) was 95° C. for 2 minutes followed by thirty three cycles of 95° C. for 40 seconds, 55° C. for 30 seconds, and 72° C. for 2 minutes 48 seconds. Final extension was 72° C. for 7 minutes. The PCR product was TA cloned into pcDNA3.2-TOPO (Invitrogen, Carlsbad, Calif.) according to standard protocol. AD293 cells with 70-80% confluency were transiently transfected with human PDE10A2/pcDNA3.2-TOPO using Lipofectamine 2000 according to manufacturer specifications (Invitrogen, Carlsbad, Calif.). Cells were harvested 48 hours post-transfection and lysed by sonication (setting 3, 10×5 sec pulses) in a buffer containing 20 mM HEPES, 1 mM EDTA and protease inhibitor cocktail (Roche). Lysate was collected by centrifugation at 75,000×g for 20 minutes. Supernatant containing the cytoplasmic fraction was used for evaluation of PDE10A2 activity. The fluorescence polarization assay for cyclic nucleotide phosphodiesterases was performed using an IMAP® FP kit supplied by Molecular Devices, Sunnyvale, Calif. (product #R8139). IMAP® technology has been applied previously to phosphodiesterase assays (Huang, W., et al., J. Biomol Screen, 2002, 7: 215). Assays were performed at room temperature in 384-well microtiter plates with an incubation volume of 20.2 μL. Solutions of test compounds were prepared in DMSO and serially diluted with DMSO to yield 8 μL of each of 10 solutions differing by 3-fold in concentration, at 32 serial dilutions per plate. 100% inhibition is determined using a known PDE10 inhibitor, which can be any compound that is present at 5,000 times its Ki value in the assay described as follows, such as papaverine (see Siuciak, et al. Neuropharmacology (2006) 51:386-396; Becker, et al. Behav Brain Res (2008) 186(2):155-60; Threlfell, et al., J Pharmacol Exp Ther (2009) 328(3):785-795), 2-{4-[pyridin-4-yl-1-(2,2,2-trifluoroethyl)-1H-pyrazol-3-yl]phenoxymethyl}quinoline succinic acid or 2-[4-(1-methyl-4-pyridin-4-yl-1H-pyrazol-3-yl)-phenoxymethyl]quinoline succinic acid (see Schmidt, et al. J Pharmacol Exp Ther (2008) 325:681-690; Threlfell, et al., J Pharmacol Exp Ther (2009) 328(3): 785-795), 0% of inhibition is determined by using DMSO (1% final concentrations).
A Labcyte Echo 555 (Labcyte, Sunnyvale, Calif.) is used to dispense […] from each well of the titration plate to the 384 well assay plate. A solution of enzyme (1/1600 dilution from aliquots; sufficient to produce 20% substrate conversion) and a separate solution of FAM-labeled cAMP PDE from Molecular Devices (product #R7506), at a final concentration of 50 nM are made in the assay buffer (10 mM Tris HCl, pH 7.2, 10 mM MgCl2, 0.05% NaN3 0.01% Tween-20, and 1 mM DTT). The enzyme and the substrate are then added to the assay plates in two consecutive additions of 10 μL, and then shaken to mix. The reaction is allowed to proceed at room temperature for 30 minutes. A binding solution is then made from the kit components, comprised of 80% Solution A, 20% Solution B and binding reagent at a volume of 1/600 the total binding solution. […]

T1 sequence (Q9Y233 267-1055): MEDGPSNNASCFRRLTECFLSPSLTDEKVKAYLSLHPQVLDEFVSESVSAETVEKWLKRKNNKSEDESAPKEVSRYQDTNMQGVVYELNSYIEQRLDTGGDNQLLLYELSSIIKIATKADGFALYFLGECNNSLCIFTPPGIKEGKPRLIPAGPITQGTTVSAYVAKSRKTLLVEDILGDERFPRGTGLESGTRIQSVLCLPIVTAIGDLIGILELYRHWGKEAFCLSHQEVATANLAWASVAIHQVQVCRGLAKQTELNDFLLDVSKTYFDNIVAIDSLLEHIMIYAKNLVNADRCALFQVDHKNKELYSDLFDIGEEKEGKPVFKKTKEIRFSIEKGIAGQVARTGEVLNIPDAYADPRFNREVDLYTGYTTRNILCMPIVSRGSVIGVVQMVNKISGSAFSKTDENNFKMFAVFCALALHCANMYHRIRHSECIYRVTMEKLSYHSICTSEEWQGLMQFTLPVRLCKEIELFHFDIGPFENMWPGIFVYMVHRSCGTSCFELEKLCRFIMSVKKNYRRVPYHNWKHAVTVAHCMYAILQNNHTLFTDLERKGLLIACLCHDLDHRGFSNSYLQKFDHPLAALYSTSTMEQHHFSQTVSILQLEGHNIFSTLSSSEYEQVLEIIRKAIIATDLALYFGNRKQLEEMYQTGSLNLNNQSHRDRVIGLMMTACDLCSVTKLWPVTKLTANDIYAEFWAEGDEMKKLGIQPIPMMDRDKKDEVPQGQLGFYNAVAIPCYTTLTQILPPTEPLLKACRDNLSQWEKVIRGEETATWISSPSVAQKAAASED

Structure (SMILES) | Ki
Cc1ccc([C@@H]2C[C@H]2CN2Cc3c(cccc3-c3ncco3)C2=O)nc1 (single isomer, unassigned) [Compound 1-50, 2-{[(1S,2S) or (1R,2R)-2-(5-methylpyridin-2-yl)cyclopropyl]methyl}-4-(1,3-oxazol-2-yl)-2,3-dihydro-1H-isoindol-1-one] | 0.61 nM
Cc1ccc([C@@H]2C[C@H]2CN2Cc3c(cccc3-n3cccn3)C2=O)nc1 (single isomer, unassigned) [Compound 1-54, 2-{[(1S,2S) or (1R,2R)-2-(5-methylpyridin-2-yl)cyclopropyl]methyl}-4-(1H-pyrazol-1-yl)-2,3-dihydro-1H-isoindol-1-one] | 0.86 nM
COc1ccc(-n2c(CCN3Cc4cccc(OC(C)C)c4C3=O)nc3ccccc3c2=O)cc1 (single isomer, unassigned) [Compound B-6, 3-(4-methoxyphenyl)-2-{2-[1-oxo-7-(propan-2-yloxy)-1,3-dihydro-2H-isoindol-2-yl]ethyl}quinazolin-4(3H)-one] | 2.9 nM
O=C1c2cccc(-n3cccn3)c2CN1CCc1ccc2ccccc2n1 [Compound 1-17, 4-(1H-pyrazol-1-yl)-2-[2-(quinolin-2-yl)ethyl]-2,3-dihydro-1H-isoindol-1-one] | 0.46 nM
O=C1c2cccc(-c3cscn3)c2CN1CCc1nc2ccccc2cc1C1CC1 [Compound 1-27, 2-[2-(3-cyclopropylquinolin-2-yl)ethyl]-4-(1,3-thiazol-4-yl)-2,3-dihydro-1H-isoindol-1-one] | 0.1 nM
O=C1c2cccc(-c3cscn3)c2CN1CCc1ccc2c(n1)CCCC2O (centres unmarked) [Compound 1-28, 2-[2-(5-hydroxy-5,6,7,8-tetrahydroquinolin-2-yl)ethyl]-4-(1,3-thiazol-4-yl)-2,3-dihydro-1H-isoindol-1-one] | 1.2 nM
O=C1c2cccc(-c3ncco3)c2CN1CCc1ccc2c(n1)CCCC2O (centres unmarked) [Compound 1-29, 2-[2-(5-hydroxy-5,6,7,8-tetrahydroquinolin-2-yl)ethyl]-4-(1,3-oxazol-2-yl)-2,3-dihydro-1H-isoindol-1-one] | 4.6 nM
O=C1c2cccc(-c3nccs3)c2CN1CCc1csc(-c2ccn[nH]2)n1 [Compound 1-40, 2-(2-(2-(1H-pyrazol-5-yl)thiazol-4-yl)ethyl)-4-(thiazol-2-yl)isoindolin-1-one] | 5.8 nM
COc1ccc(-n2c(CCN3Cc4c(Br)cccc4C3=O)nc3ccccc3c2=O)cc1 [Compound A-3, 2-[2-(4-bromo-1-oxo-1,3-dihydro-2H-isoindol-2-yl)ethyl]-3-(4-methoxyphenyl)quinazolin-4(3H)-one] | 16 nM
COc1ccc(-n2c(CCN3Cc4c(cccc4-c4ncco4)C3=O)nc3ccccc3c2=O)cc1 [Compound A-4, 3-(4-methoxyphenyl)-2-{2-[4-(1,3-oxazol-2-yl)-1-oxo-1,3-dihydro-2H-isoindol-2-yl]ethyl}quinazolin-4(3H)-one] | 0.19 nM

Now from value to molecule:

Ki | Structure (SMILES)
1.2 nM | COc1ccc(-n2c(CCN3Cc4c(OC(C)C)cccc4C3=O)nc3ccccc3c2=O)cc1 (single isomer, unassigned) [Compound B-7, 3-(4-methoxyphenyl)-2-{2-[1-oxo-4-(propan-2-yloxy)-1,3-dihydro-2H-isoindol-2-yl]ethyl}quinazolin-4(3H)-one]
0.011 nM | COc1ccc(-c2cc3ccccc3nc2CCN2Cc3c(cccc3-c3ncco3)C2=O)cc1 [Compound C-5, 2-{2-[3-(4-methoxyphenyl)quinolin-2-yl]ethyl}-4-(1,3-oxazol-2-yl)-2,3-dihydro-1H-isoindol-1-one]
10.9 nM | O=C1c2cccc(-n3cccn3)c2CN1CCc1ccc2ncccc2n1 [Compound D-4, 2-[2-(1,5-naphthyridin-2-yl)ethyl]-4-(1H-pyrazol-1-yl)-2,3-dihydro-1H-isoindol-1-one]
5.7 nM | CC(CN1Cc2c(cccc2-c2ncco2)C1=O)c1cn2ccccc2n1 (centres unmarked) [Compound E-5, 2-[2-(imidazo[1,2-a]pyridin-2-yl)propyl]-4-(1,3-oxazol-2-yl)-2,3-dihydro-1H-isoindol-1-one]
2.3 nM | O=C1c2cccc(-c3ncco3)c2CN1CCc1ccc2c(n1)CCCC2 [Compound F-6, 4-(1,3-oxazol-2-yl)-2-[2-(5,6,7,8-tetrahydroquinolin-2-yl)ethyl]-2,3-dihydro-1H-isoindol-1-one]
50 nM | Cn1cc(-c2cccc3c2CN(CCc2ccc4ncccc4n2)C3=O)nn1 [Compound H-2, 4-(1-methyl-1H 1,2,3-triazol-4-yl)-2-[2-(1,5-naphthyridin-2-yl)ethyl]isoindolin-1-one]
17.2 nM | O=C1c2cc(O)cc(Br)c2CN1CCc1ccc2ncccc2n1 [Compound I-4, 4-Bromo-6-hydroxy-2-[2-(1,5naphthyridin-2-yl)ethyl]isoindolin-1-one]
11.2 nM | Cn1cc(CNc2cc3c(c(-c4ncco4)n2)CN(CCc2cn4ccccc4n2)C3=O)cn1 [Compound J-9]
0.31 nM | O=C1c2cccc(-c3cscn3)c2CN1CCc1csc(-c2ccn[nH]2)n1 [Compound K-4, 2-(2-(2-(1H-pyrazol-5-yl)thiazol-4-yl)ethyl)-4-(thiazol-4-yl)isoindolin-1-one]
0.14 nM | O=C1c2cccc(-c3ncco3)c2CN1CC1CC1c1cn2ccccc2n1 (centres unmarked) [Compound M-6, 2-((2-(imidazo[1,2-a]pyridin-2-yl)cyclopropyl)methyl)-4-(oxazol-2-yl)isoindolin-1-one]
